Reference: US20160214972A1, “COMPOUNDS AND METHODS FOR THE TARGETED DEGRADATION OF ANDROGEN RECEPTOR” (Arvinas, Inc., priority 2015, published 2016)
“Also recorded” adds a separate entry of the source.

Columns and labels:
prostate = assay: Prostate involution in C57B6 mouse model; assay type: in vivo; conditions: 12-week old male C57BL/6 mice; IP, QD, 1 and 3 mpk for 10 days
Source text: FIG. 5. Prostate involution in C57B6 mouse model.

VCaP xenograft = assay: Tumor growth inhibition in VCaP xenograft model; assay type: in vivo; conditions: castrated CB17 scid mice with VCaP tumors; enzalutamide PO, QD, 30 mpk; Example 163 IP, QD, 30, 10 and 3 mpk
Source text: FIG. 6. Tumor growth inhibition in VCaP xenograft model. VCaP cells were implanted into CB17 scid mice subcutaneously. Once the tumors were palpable, the mice were castrated, leading to temporary tumor stasis.
VCaP cells were implanted into CB17 scid mice subcutaneously. Once the tumors were palpable, the mice were castrated, leading to temporary tumor stasis.

Androgen Receptor = Androgen Receptor ELISA assay (PathScan AR ELISA) in LNCaP and/or VCaP cells; assay type: cell-based; conditions: highest percentage of Androgen Receptor degradation observed
[1] = tested on: LNCaP cells transduced with AR F876L construct; assay: Anti-proliferation in LNCaP F876L (CellTiterGlo); assay type: cell-based; conditions: Charcoal Stripped Serum media, 7 days
Procedure: FIG. 3. Anti-proliferation in LNCaP F876L. […] LNCaP cells transduced with AR F876L construct were cultured in Charcoal Stripped Serum containing media.
LNCaP cells transduced with AR F876L construct were cultured in Charcoal Stripped Serum containing media. […] CellTiterGlo reagent (Promega) was employed to assess proliferation.

AR = target: T1, AR (Homo sapiens, UniProt P10275+P40337, T878A); assay: AR degradation of PROTAC is E3 ligase dependent (LNCaP cells); assay type: cell-based; conditions: 24 hours
T1 construct: endogenous in cells; host or cells: LNCaP cells
T1 sequence (P10275 whole entry T878A): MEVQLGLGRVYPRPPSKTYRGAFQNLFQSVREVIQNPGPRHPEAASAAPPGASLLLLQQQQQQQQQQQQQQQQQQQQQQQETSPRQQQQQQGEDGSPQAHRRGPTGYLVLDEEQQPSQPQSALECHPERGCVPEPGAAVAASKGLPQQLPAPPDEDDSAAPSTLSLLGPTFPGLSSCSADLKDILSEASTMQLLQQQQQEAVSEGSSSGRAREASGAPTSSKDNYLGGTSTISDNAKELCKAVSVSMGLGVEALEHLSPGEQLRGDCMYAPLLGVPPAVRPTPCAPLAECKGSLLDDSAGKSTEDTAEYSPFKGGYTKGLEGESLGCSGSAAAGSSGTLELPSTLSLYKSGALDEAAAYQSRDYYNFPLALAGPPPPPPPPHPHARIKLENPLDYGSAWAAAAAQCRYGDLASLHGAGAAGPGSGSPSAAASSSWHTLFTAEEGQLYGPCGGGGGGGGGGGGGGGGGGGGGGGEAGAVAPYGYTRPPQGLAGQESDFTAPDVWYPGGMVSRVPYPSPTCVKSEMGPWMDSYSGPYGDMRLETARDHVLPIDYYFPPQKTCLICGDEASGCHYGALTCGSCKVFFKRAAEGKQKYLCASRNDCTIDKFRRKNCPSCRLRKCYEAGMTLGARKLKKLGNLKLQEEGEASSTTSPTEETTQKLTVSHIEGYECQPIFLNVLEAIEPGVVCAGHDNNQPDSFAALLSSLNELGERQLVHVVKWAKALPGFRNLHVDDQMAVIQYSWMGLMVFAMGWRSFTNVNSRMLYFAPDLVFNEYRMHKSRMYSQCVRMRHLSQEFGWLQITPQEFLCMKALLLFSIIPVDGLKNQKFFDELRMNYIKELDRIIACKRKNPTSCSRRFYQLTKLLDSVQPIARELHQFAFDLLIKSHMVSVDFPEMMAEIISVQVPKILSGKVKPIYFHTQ
T1 sequence (P40337 whole entry): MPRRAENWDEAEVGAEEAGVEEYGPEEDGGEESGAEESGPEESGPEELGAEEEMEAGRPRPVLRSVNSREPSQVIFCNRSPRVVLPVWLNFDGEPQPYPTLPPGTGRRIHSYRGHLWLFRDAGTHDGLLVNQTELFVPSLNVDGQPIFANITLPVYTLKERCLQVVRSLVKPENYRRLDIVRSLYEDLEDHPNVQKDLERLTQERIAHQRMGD
T1 sequence (Q15369 whole entry partner): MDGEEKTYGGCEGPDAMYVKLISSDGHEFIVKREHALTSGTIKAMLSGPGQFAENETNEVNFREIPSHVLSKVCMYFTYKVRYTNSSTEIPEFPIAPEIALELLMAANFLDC
T1 sequence (Q15370 whole entry partner): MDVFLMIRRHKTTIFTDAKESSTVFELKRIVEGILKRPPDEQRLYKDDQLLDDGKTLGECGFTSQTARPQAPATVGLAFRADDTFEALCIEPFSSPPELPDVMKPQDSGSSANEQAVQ
T1 sequence (Q13617 whole entry partner): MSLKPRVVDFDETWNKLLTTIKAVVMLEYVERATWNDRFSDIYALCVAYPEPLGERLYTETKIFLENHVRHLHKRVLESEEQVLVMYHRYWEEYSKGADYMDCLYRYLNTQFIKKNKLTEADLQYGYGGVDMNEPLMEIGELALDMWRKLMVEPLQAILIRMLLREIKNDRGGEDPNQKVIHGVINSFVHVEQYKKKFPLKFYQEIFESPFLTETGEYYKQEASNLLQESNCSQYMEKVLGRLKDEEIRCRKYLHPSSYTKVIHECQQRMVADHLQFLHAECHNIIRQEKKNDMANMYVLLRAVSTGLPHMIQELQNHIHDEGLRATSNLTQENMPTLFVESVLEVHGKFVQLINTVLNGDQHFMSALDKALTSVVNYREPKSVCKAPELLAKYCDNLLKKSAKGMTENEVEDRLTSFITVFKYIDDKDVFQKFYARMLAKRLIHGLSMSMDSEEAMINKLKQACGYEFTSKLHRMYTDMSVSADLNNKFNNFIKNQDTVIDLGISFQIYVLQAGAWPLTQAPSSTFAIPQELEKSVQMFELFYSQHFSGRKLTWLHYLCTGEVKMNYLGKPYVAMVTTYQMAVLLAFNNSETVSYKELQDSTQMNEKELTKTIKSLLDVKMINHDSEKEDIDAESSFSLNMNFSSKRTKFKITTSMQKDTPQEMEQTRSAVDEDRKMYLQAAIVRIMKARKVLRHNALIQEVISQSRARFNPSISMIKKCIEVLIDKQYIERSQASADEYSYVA
T1 sequence (P62877 whole entry partner): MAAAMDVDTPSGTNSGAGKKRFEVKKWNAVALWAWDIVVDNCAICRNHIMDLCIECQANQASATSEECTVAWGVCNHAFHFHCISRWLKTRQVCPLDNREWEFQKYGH
Source text: FIG. 7A and FIG. 7B. AR degradation of PROTAC is E3 ligase dependent.

With `Cc1ncsc1-c1ccc(CNC(=O)[C@@H]2C[C@@H](O)CN2C(=O)[C@@H](NC(=O)COCCCCOc2ccc(C(=O)N[C@H]3C(C)(C)[C@H](Oc4ccc(C#N)c(Cl)c4)C3(C)C)cc2)C(C)(C)C)cc1` [Example 163, (2S,4R)-1-[(2S)-3,3-dimethyl-2-{2-[4-(4-{[trans-3-(3-chloro-4-cyanophenoxy)-2,2,4,4-tetramethylcyclobutyl]carbamoyl}phenoxy)butoxy]acetamido}butanoyl]-4-hydroxy-N-{[4-(4-methyl-1,3-thiazol-5-yl)phenyl]methyl}pyrrolidine-2-carboxamide] as the compound, how does the “prostate weights (prostate involution)” value (prostate) read?
The value was “significant reduction in prostate weights; also recorded: significant prostate involution in mice at very low doses”.

What about the tumor growth inhibition (VCaP xenograft) of the same compound?
The tumor growth inhibition was “Tumor growth inhibition was observed in all treatment arms”.

With `Cc1ncsc1-c1ccc(CNC(=O)[C@@H]2C[C@@H](O)CN2C(=O)[C@@H](NC(=O)COCCOCCOc2ccc(-c3ccc(N4C(=S)N(c5ccc(C#N)c(C(F)(F)F)c5)C(=O)C4(C)C)cc3)cc2)C(C)(C)C)cc1` [Example 67, (2S,4R)-1-((S)-2-(2-(2-(2-(4′-(3-(4-cyano-3-(trifluoromethyl)phenyl)-5,5-dimethyl-4-oxo-2-thioxoimidazolidin-1-yl)biphenyl-4-yloxy)ethoxy)ethoxy)acetamido)-3,3-dimethylbutanoyl)-4-hydroxy-N-(4-(4-methylthiazol-5-yl)benzyl)pyrrolidine-2-carboxamide] as the compound, how does the “LNCaP Dmax (%)” value (Androgen Receptor) read?
Its value is 72.1%.

`Cc1ncsc1-c1ccc(CNC(=O)[C@@H]2C[C@@H](O)CN2C(=O)[C@@H](NC(=O)COCCCOCCCCCOc2ccc(N3C(=S)N(c4ccc(C#N)c(C(F)(F)F)c4)C(=O)C3(C)C)cc2)C(C)(C)C)cc1` [Example 1, (2S,4R)-1-((S)-2-(2-(3-(5-(4-(3-(4-cyano-3-(trifluoromethyl)phenyl)-5,5-dimethyl-4-oxo-2-thioxoimidazolidin-1-yl)phenoxy)pentyloxy)propoxy)acetamido)-3,3-dimethylbutanoyl)-4-hydroxy-N-(4-(4-methylthiazol-5-yl)benzyl)pyrrolidine-2-carboxamide] was tested. Which “proliferation of LNCaP F876L cells (agonist activity)” value [1] did it give?
The value was “did not exhibit agonist activity; also recorded: Anti-proliferation in LNCaP F876L cells observed”.

And the “AR degradation in LNCaP cells” value (AR)?
Its value is “significant degradation of AR”.

And the “AR degradation in LNCaP cells in the presence of VHL E3 ligase ligand compound B” value (AR; 10 uM compound B)?
Its value is “greatly diminishes the AR degradation activity”.

With `CNC(=O)c1ccc(N2C(=S)N(c3ccc(C#N)c(C(F)(F)F)c3)C(=O)C2(C)C)cc1F` [enzalutamide, reference compound] as the compound, how does the tumor growth inhibition (VCaP xenograft) read?
Its tumor growth inhibition is “Tumor growth inhibition was observed in all treatment arms”.
